molecular target: T1, rat metabotropic glutamate receptor 5 (mGluR5) (Rattus norvegicus, UniProt P31424); assay: Calcium mobilization assay (FLIPR) for negative or positive allosteric activity, HEK 293 cells; type: cell-based; conditions: HEK293, negative allosteric modulation, inhibition of EC80 glutamate response; read-out: FLIPR maximum inhibition
T1 construct: expressed in transfected cells; host or cells: HEK 293
Summary of the method: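 Peak Fluo-4 calcium signal over 3 min at room temperature, minus basal, fitted by Hill equation, in stable rat mGluR5 HEK 293 cells (HBSS/HEPES pH 7.4, BSA, probenecid). Inhibition scored against EC80 glutamate, potentiation against EC20 glutamate, glutamate given with compound.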

T1 sequence (P31424 21-1171 isoform P31424-2 limits assumed): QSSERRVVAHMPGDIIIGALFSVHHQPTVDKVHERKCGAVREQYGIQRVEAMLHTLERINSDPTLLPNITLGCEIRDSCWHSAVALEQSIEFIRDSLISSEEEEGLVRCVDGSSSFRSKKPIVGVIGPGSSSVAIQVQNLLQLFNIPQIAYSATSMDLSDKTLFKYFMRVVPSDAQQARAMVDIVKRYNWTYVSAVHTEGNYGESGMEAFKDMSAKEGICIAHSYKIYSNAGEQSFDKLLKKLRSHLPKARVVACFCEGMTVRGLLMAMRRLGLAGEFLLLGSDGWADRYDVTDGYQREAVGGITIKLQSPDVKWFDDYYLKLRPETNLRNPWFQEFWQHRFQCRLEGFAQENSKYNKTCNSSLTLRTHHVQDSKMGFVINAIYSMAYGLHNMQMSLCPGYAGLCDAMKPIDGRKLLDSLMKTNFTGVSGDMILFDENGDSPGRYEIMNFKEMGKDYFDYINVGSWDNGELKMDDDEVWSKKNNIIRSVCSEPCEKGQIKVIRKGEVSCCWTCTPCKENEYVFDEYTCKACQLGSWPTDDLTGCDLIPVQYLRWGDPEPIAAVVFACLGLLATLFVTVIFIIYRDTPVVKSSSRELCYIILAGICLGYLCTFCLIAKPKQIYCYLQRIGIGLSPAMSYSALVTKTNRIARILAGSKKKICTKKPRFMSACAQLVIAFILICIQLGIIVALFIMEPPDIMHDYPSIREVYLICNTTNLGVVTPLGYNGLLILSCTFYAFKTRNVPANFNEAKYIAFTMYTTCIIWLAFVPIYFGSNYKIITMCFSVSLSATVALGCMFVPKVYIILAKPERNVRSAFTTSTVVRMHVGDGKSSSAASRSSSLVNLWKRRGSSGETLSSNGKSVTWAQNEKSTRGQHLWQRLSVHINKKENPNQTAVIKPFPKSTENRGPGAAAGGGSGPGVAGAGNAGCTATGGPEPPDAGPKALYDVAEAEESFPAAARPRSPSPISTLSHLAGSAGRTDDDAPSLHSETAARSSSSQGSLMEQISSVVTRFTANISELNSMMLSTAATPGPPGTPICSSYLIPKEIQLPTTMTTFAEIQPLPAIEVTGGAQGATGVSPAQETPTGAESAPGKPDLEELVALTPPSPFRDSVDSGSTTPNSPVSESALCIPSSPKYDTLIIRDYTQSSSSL

Compound | Emax [%]
Cc1cccc(C(=O)NC23CC4CC(C2)CC(NC(=O)c2cccc(N(C)CCCN(C)C)n2)(C4)C3)n1 [Example 233, 6-[(3-Dimethylamino-propyl)-methyl-amino]-pyridine-2-carboxylic acid {3-[(6-methyl-pyridine-2-carbonyl)-amino]-adamantan-1-yl}-amide] | 63 to 99
NC(=O)[C@@H]1CCCN1c1cccc(C(=O)NC23CC4CC(CC(NC(=O)c5ccccn5)(C4)C2)C3)n1 [Example 230, 6-((S)-2-Carbamoyl-pyrrolidin-1-yl)-pyridine-2-carboxylic acid {3-[(pyridine-2-carbonyl)-amino]-adamantan-1-yl}-amide] | 63 to 99
Cc1ccnc(C(=O)NC23CC4CC(CC(NC(=O)c5cccc(F)c5)(C4)C2)C3)n1 [Example 182, 4-Methyl-pyrimidine-2-carboxylic acid [3-(3-fluoro-benzoylamino)-adamantan-1-yl]-amide] | 63 to 99
CN(C)CCCN(C)c1cccc(C(=O)NC23CC4CC(CC(NC(=O)c5cccc(F)c5)(C4)C2)C3)n1 [Example 243, 6-[(3-Dimethylamino-propyl)-methyl-amino]-pyridine-2-carboxylic acid [3-(3-fluoro-benzoylamino)-adamantan-1-yl]-amide] | 63 to 99
O=C(NC12CC3CC(C1)CC(NC(=O)c1nccc(C(F)(F)F)n1)(C3)C2)c1cccc(F)c1 [Example 184, 4-Trifluoromethyl-pyrimidine-2-carboxylic acid [3-(3-fluoro-benzoylamino)-adamantan-1-yl]-amide] | 63 to 99
Cc1cccc(C(=O)NC23CC4CC(C2)CC(NC(=O)c2cccc(N5CCC[C@H]5C(N)=O)n2)(C4)C3)n1 [Example 239, 6-((S)-2-Carbamoyl-pyrrolidin-1-yl)-pyridine-2-carboxylic acid {3-[(6-methyl-pyridine-2-carbonyl)-amino]-adamantan-1-yl}-amide] | 63 to 99
O=C(NC12CC3CC(C1)CC(NC(=O)c1cccc(NCCO)n1)(C3)C2)c1cccc(F)c1 [Example 212, 6-(2-Hydroxy-ethylamino)-pyridine-2-carboxylic acid [3-(3-fluoro-benzoylamino)-adamantan-1-yl]-amide] | 63 to 99
O=C(NC12CC3CC(C1)CC(NC(=O)c1cccc(N4CCC[C@H]4CO)n1)(C3)C2)c1cccc(F)c1 [Example 249, 6-((S)-2-Hydroxymethyl-pyrrolidin-1-yl)-pyridine-2-carboxylic acid [3-(3-fluoro-benzoylamino)-adamantan-1-yl]-amide] | 63 to 99
Cc1cccc(C(=O)NC23CC4CC(CC(NC(=O)c5ccc6c(c5)OCCO6)(C4)C2)C3)n1 [Example 124, 6-Methyl-pyridine-2-carboxylic acid {3-[(2,3-dihydro-benzo[1,4]dioxine-6-carbonyl)-amino]-adamantan-1-yl}-amide] | 70 to 99
Cc1cccc(C(=O)NC23CC4CC(C2)CC(NC(=O)c2cccc(NCCCN(C)C)n2)(C4)C3)n1 [Example 236, 6-(3-Dimethylamino-propylamino)-pyridine-2-carboxylic acid {3-[(6-methyl-pyridine-2-carbonyl)-amino]-adamantan-1-yl}-amide] | 63 to 99
COCCN(C)c1cccc(C(=O)NC23CC4CC(CC(NC(=O)c5cccc(C)n5)(C4)C2)C3)n1 [Example 207, 6-[(2-Methoxy-ethyl)-methyl-amino]-pyridine-2-carboxylic acid{3-[(6-methyl-pyridine-2-carbonyl)-amino]-adamantan-1-yl}-amide] | 63 to 99
Cc1cncc(C(=O)NC23CC4CC(CC(NC(=O)c5cncc(Cl)c5)(C4)C2)C3)n1 [Example 170, 6-Methyl-pyrazine-2-carboxylic acid {3-[(5-chloro-pyridine-3-carbonyl)-amino]-adamantan-1-yl}-amide] | 63 to 99
O=C(NC12CC3CC(C1)CC(NC(=O)c1cccc(N4CCC(O)C4)n1)(C3)C2)c1cccc(F)c1 (stereo not shown) [Example 219, 6-(3-Hydroxy-pyrrolidin-1-yl)-pyridine-2-carboxylic acid [3-(3-fluoro-benzoylamino)-adamantan-1-yl]-amide] | 63 to 99
O=C(NC12CC3CC(C1)CC(NC(=O)c1cccc(NCCCO)n1)(C3)C2)c1cccc(F)c1 [Example 214, 6-(3-Hydroxy-propylamino)-pyridine-2-carboxylic acid [3-(3-fluoro-benzoylamino)-adamantan-1-yl]-amide] | 63 to 99
O=C(NC12CC3CC(C1)CC(NC(=O)C1CC1(F)F)(C3)C2)c1ccccn1 (stereo not shown) [Example 83, Pyridine-2-carboxylic acid {3-[(2,2-difluoro-cyclopropanecarbonyl)-amino]-adamantan-1-yl}-amide] | 63 to 99

Further lines, results first:

Emax [%] | Compound
70 to 99 | Cc1cc(C(=O)NC23CC4CC(CC(NC(=O)c5ccccn5)(C4)C2)C3)nn1C [Example 109, Pyridine-2-carboxylic acid {3-[(1,5-dimethyl-1H-pyrazole-3-carbonyl)-amino]-adamantan-1-yl}-amide]
63 to 99 | Cc1cccc(C(=O)NC23CC4CC(CC(NC(=O)c5cccc(F)c5)(C4)C2)C3)n1 [Example 30, 6-Methyl-pyridine-2-carboxylic acid [3-(3-fluoro-benzoylamino)-adamantan-1-yl]-amide]
90 to 99 | O=C(NC12CC3CC(C1)CC(NC(=O)c1ccccn1)(C3)C2)c1cccc(Cl)c1 [Example 6, Pyridine-2-carboxylic acid [3-(3-chloro-benzoylamino)-adamantan-1-yl]-amide]
70 to 99 | Cc1cccc(C(=O)NC23CC4CC(C2)CC(NC(=O)c2ncccc2F)(C4)C3)n1 [Example 129, 6-Methyl-pyridine-2-carboxylic acid {3-[(3-fluoro-pyridine-2-carbonyl)-amino]-adamantan-1-yl}-amide]
63 to 99 | Cc1ccnc(C(=O)NC23CC4CC(C2)CC(NC(=O)c2cc(C)ccn2)(C4)C3)c1 [Example 11, N,N′-(1,3-Adamantylene)bis(4-methyl-pyridine-2-carboxamide)]
63 to 99 | O=C(NC12CC3CC(C1)CC(NC(=O)c1ccccn1)(C3)C2)c1ccc2nccn2c1 [Example 89, Imidazo[1,2-a]pyridine-6-carboxylic acid {3-[(pyridine-2-carbonyl)-amino]-adamantan-1-yl}-amide]
63 to 99 | Cc1cccc(C(=O)NC23CC4CC(C2)CC(NC(=O)c2cccc(N(C)CCO)n2)(C4)C3)n1 [Example 209, 6-[(2-Hydroxy-ethyl)-methyl-amino]-pyridine-2-carboxylic acid {3-[(6-methyl-pyridine-2-carbonyl)-amino]-adamantan-1-yl}-amide]
63 to 99 | Cc1ccnc(C(=O)NC23CC4CC(CC(NC(=O)c5cnccn5)(C4)C2)C3)n1 [Example 189, 4-Methyl-pyrimidine-2-carboxylic acid {3-[(pyrazine-2-carbonyl)-amino]-adamantan-1-yl}-amide]
70 to 99 | Cc1cncc(C(=O)NC23CC4CC(C2)CC(NC(=O)c2cccc(Cl)c2F)(C4)C3)n1 [Example 152, 6-Methyl-pyrazine-2-carboxylic acid [3-(3-chloro-2-fluoro-benzoylamino)-adamantan-1-yl]-amide]
63 to 99 | O=C(NC12CC3CC(C1)CC(NC(=O)c1ccccn1)(C3)C2)c1cccc(F)c1 [Example 59, Pyridine-2-carboxylic acid [3-(3-fluoro-benzoylamino)-adamantan-1-yl]-amide]
63 to 99 | Cc1cccc(C(=O)NC23CC4CC(C2)CC(NC(=O)c2cccc(NCCC(N)=O)n2)(C4)C3)n1 [Example 240, 6-(2-Carbamoyl-ethylamino)-pyridine-2-carboxylic acid (3-[(6-methyl-pyridine-2-carbonyl)-amino]-adamantan-1-yl}-amide]
63 to 99 | Cc1cccc2nc(C(=O)NC34CC5CC(CC(NC(=O)c6ccccn6)(C5)C3)C4)cn12 [Example 92, 5-Methyl-imidazo[1,2-a]pyridine-2-carboxylic acid {3-[(pyridine-2-carbonyl)-amino]-adamantan-1-yl}-amide]
63 to 99 | O=C(NC12CC3CC(C1)CC(NC(=O)c1cnc4ccccc4n1)(C3)C2)c1cnc2ccccc2n1 [Example 13, N,N′-(1,3-adamantylene)bis(quinoxaline-2-carboxamide)]
63 to 99 | Cc1cccc(C(=O)NC23CC4CC(C2)CC(NC(=O)c2cccc(NCCO)n2)(C4)C3)n1 [Example 208, 6-(2-Hydroxy-ethylamino)-pyridine-2-carboxylic acid {3-[(6-methyl-pyridine-2-carbonyl)-amino]-adamantan-1-yl}-amide]
70 to 99 | COc1cccc(C(=O)NC23CC4CC(CC(NC(=O)c5cncc(C)n5)(C4)C2)C3)n1 [Example 151, 6-Methyl-pyrazine-2-carboxylic acid {3-[(6-methoxy-pyridine-2-carbonyl)-amino]-adamantan-1-yl}-amide]
63 to 99 | O=C(NC12CC3CC(C1)CC(NC(=O)c1cccs1)(C3)C2)c1ccccn1 [Example 75, Pyridine-2-carboxylic acid {3-[(thiophene-2-carbonyl)-amino]-adamantan-1-yl}-amide]
63 to 99 | O=C(NC12CC3CC(C1)CC(NC(=O)c1cccc(-n4ccnc4)n1)(C3)C2)c1ccccn1 [Example 253, 6-Imidazol-1-yl-pyridine-2-carboxylic acid {3-[(pyridine-2-carbonyl)-amino]-adamantan-1-yl}-amide]
63 to 99 | Cc1cccc(C(=O)NC23CC4CC(C2)CC(NC(=O)c2nn(C)c5ccccc25)(C4)C3)n1 [Example 37, 1-Methyl-1H-indazole-3-carboxylic acid {3-[(6-methyl-pyridine-2-carbonyl)-amino]-adamantan-1-yl}-amide]
63 to 99 | Cc1cccc(C(=O)NC23CC4CC(C2)CC(NC(=O)c2ccc5cccnc5n2)(C4)C3)n1 [Example 27, [1,8]Naphthyridine-2-carboxylic acid {3-[(6-methyl-pyridine-2-carbonyl)-amino]-adamantan-1-yl}-amide]

Source: US8716284B2, “Adamantyl diamide derivatives and uses of same” (H. Lundbeck A/S, priority 2008, dated 2014)
